Literature values as cited in patent US20110288042A1, “STABLE HIGHLY PURE AZACITIDINE AND PREPARATION METHODS THEREFOR” (CHEMAGIS LTD., priority 2007, published 2011).

Conditions: reported; cited from earlier work

## O=c1ncccn1[C@@H]1O[C@H](CO)[C@@H](O)[C@H]1O [zebularine]
  Stability in aqueous solution: stable in aqueous solution
